Laboratory results from ChEMBL document CHEMBL3885861, “Open TG-GATES”.

Species on record: Rattus norvegicus
Experiment: Open TG-GATES - Regimen: Single
Assay type: toxicity, organism-based, Sprague-Dawley
Design: regimen Single, gender Male, age 6 weeks
Conditions: in vivo, po, 30 mg/kg, route gavage, dose level High; for APTT / Bas / Eos / Fbg / Hb / Ht / Lym / MCH / MCHC / MCV / Mono / Neu / PT / Plat / RBC / Ret / WBC: tissue Blood; for KIDNEY_L / KIDNEY_R / KIDNEY_TOTAL: tissue Kidney; for LIVER: tissue Liver; for A/G / ALP / ALT / AST / BUN / CRE / Ca / Cl / DBIL / GLC / IP / K / LDH / Na / PL / RALB / TBIL / TC / TG / TP / gamma-GTP: tissue Plasma

In the case of `C[C@H]1C(=O)O[C@@H]2CCN3CC=C(COC(=O)[C@](C)(O)[C@]1(C)O)[C@H]23` [MONOCROTALINE], the TERMINAL_BW (3 h) is reported as 209.7 g, the APTT (3 h) is reported as 21.1 s and the Bas (3 h) is reported as 0%. For the same compound, the Eos (3 h) was 1.2%, the Fbg (3 h) was 305.4 mg/dL and the Hb (3 h) was 13.2 g/dL. The Ht (3 h) was 38.8%, the Lym (3 h) was 76.4% and the MCH (3 h) was 21.5 pg. The MCHC (3 h) was 34%, the MCV (3 h) was 63.2 fL and the Mono (3 h) was 2.2%. It also gave a Neu (3 h) of 19.6%, a PT (3 h) of 16.2 s and a Plat (3 h) of 119.2 x10_4/uL. For the same compound, the RBC (3 h) was 615.6 x10_4/ul, the Ret (3 h) was 8.9% and the WBC (3 h) was 71.5 x10_2/uL. It also gave a KIDNEY_L (3 h) of 0.9 g, a KIDNEY_R (3 h) of 0.9 g and a KIDNEY_TOTAL (3 h) of 1.8 g. It also gave an LIVER (3 h) of 9.5 g, an A/G (3 h) of 1.4 and an ALP (3 h) of 1720.6 IU/L. For the same compound, the ALT (3 h) was 40.8 IU/L, the AST (3 h) was 76.4 IU/L and the BUN (3 h) was 13.2 mg/dL. For the same compound, the CRE (3 h) was 0.2 mg/dL, the Ca (3 h) was 10.4 mg/dL and the Cl (3 h) was 106 meq/L. For the same compound, the DBIL (3 h) was 0 mg/dL, the GLC (3 h) was 169.4 mg/dL and the IP (3 h) was 9.2 mg/dL. The K (3 h) was 4.2 meq/L, the LDH (3 h) was 228.2 IU/L and the Na (3 h) was 142 meq/L. The PL (3 h) was 127.6 mg/dL, the RALB (3 h) was 3.1 g/dL and the TBIL (3 h) was 0.01 mg/dL. The TC (3 h) was 71.2 mg/dL, the TG (3 h) was 78.8 mg/dL and the TP (3 h) was 5.3 g/dL. It also gave a gamma-GTP (3 h) of 1 IU/L, a TERMINAL_BW (6 h) of 211.5 g and an APTT (6 h) of 22.7 s. For the same compound, the Bas (6 h) was 0%, the Eos (6 h) was 1% and the Fbg (6 h) was 309.8 mg/dL. For the same compound, the Hb (6 h) was 13.7 g/dL, the Ht (6 h) was 39.8% and the Lym (6 h) was 78.6%. For the same compound, the MCH (6 h) was 20.8 pg, the MCHC (6 h) was 34.4% and the MCV (6 h) was 60.7 fL. It also gave a Mono (6 h) of 2.6%, a Neu (6 h) of 17.2% and a PT (6 h) of 16.2 s. The Plat (6 h) was 128.2 x10_4/uL, the RBC (6 h) was 657.2 x10_4/ul and the Ret (6 h) was 8.4%. The WBC (6 h) was 94.1 x10_2/uL, the KIDNEY_L (6 h) was 0.9 g and the KIDNEY_R (6 h) was 1 g. The KIDNEY_TOTAL (6 h) was 1.9 g, the LIVER (6 h) was 9.6 g and the A/G (6 h) was 1.3. It also gave an ALP (6 h) of 1398.4 IU/L, an ALT (6 h) of 39.2 IU/L and an AST (6 h) of 72.8 IU/L. It also gave a BUN (6 h) of 11.2 mg/dL, a CRE (6 h) of 0.1 mg/dL and a Ca (6 h) of 10.5 mg/dL. The Cl (6 h) was 106.4 meq/L, the DBIL (6 h) was 0 mg/dL and the GLC (6 h) was 173 mg/dL. It also gave an IP (6 h) of 9.6 mg/dL, a K (6 h) of 4.4 meq/L and an LDH (6 h) of 273.4 IU/L. It also gave a Na (6 h) of 141.8 meq/L, a PL (6 h) of 137.4 mg/dL and an RALB (6 h) of 3 g/dL. It also gave a TBIL (6 h) of 0.018 mg/dL, a TC (6 h) of 73 mg/dL and a TG (6 h) of 66 mg/dL. For the same compound, the TP (6 h) was 5.4 g/dL, the gamma-GTP (6 h) was 1 IU/L and the TERMINAL_BW (9 h) was 210 g. It also gave an APTT (9 h) of 20.9 s, a Bas (9 h) of 0% and an Eos (9 h) of 0.8%. For the same compound, the Fbg (9 h) was 301.6 mg/dL, the Hb (9 h) was 13.2 g/dL and the Ht (9 h) was 38.3%. For the same compound, the Lym (9 h) was 79%, the MCH (9 h) was 21.2 pg and the MCHC (9 h) was 34.4%. For the same compound, the MCV (9 h) was 61.8 fL, the Mono (9 h) was 1.8% and the Neu (9 h) was 18%. For the same compound, the PT (9 h) was 16.3 s, the Plat (9 h) was 122.7 x10_4/uL and the RBC (9 h) was 620.2 x10_4/ul. The Ret (9 h) was 9%, the WBC (9 h) was 63.3 x10_2/uL and the KIDNEY_L (9 h) was 1 g. For the same compound, the KIDNEY_R (9 h) was 1 g, the KIDNEY_TOTAL (9 h) was 2 g and the LIVER (9 h) was 9.4 g. It also gave an A/G (9 h) of 1.4, an ALP (9 h) of 1227.2 IU/L and an ALT (9 h) of 36.8 IU/L. For the same compound, the AST (9 h) was 70.8 IU/L, the BUN (9 h) was 9.6 mg/dL and the CRE (9 h) was 0.1 mg/dL. The Ca (9 h) was 10.7 mg/dL, the Cl (9 h) was 105.6 meq/L and the DBIL (9 h) was 0.006 mg/dL. The GLC (9 h) was 178 mg/dL, the IP (9 h) was 10.2 mg/dL and the K (9 h) was 4.3 meq/L. The LDH (9 h) was 198.2 IU/L, the Na (9 h) was 142.2 meq/L and the PL (9 h) was 119.4 mg/dL. It also gave an RALB (9 h) of 3.1 g/dL, a TBIL (9 h) of 0.022 mg/dL and a TC (9 h) of 64 mg/dL. It also gave a TG (9 h) of 40.8 mg/dL, a TP (9 h) of 5.4 g/dL and a gamma-GTP (9 h) of 1 IU/L. It also gave a TERMINAL_BW (24 h) of 212.6 g, an APTT (24 h) of 20.5 s and a Bas (24 h) of 0%. It also gave an Eos (24 h) of 0.8%, a Fbg (24 h) of 302.4 mg/dL and a Hb (24 h) of 13.9 g/dL. It also gave a Ht (24 h) of 40.3%, a Lym (24 h) of 79.4% and an MCH (24 h) of 21.1 pg. It also gave an MCHC (24 h) of 34.5%, an MCV (24 h) of 61.3 fL and a Mono (24 h) of 3%. It also gave a Neu (24 h) of 16.2%, a PT (24 h) of 16.1 s and a Plat (24 h) of 123.3 x10_4/uL. It also gave an RBC (24 h) of 658.2 x10_4/ul, a Ret (24 h) of 7% and a WBC (24 h) of 70.1 x10_2/uL. The KIDNEY_L (24 h) was 1 g, the KIDNEY_R (24 h) was 1 g and the KIDNEY_TOTAL (24 h) was 1.9 g. For the same compound, the LIVER (24 h) was 10.4 g, the A/G (24 h) was 1.4 and the ALP (24 h) was 1607.2 IU/L. The ALT (24 h) was 47.8 IU/L, the AST (24 h) was 75 IU/L and the BUN (24 h) was 15.8 mg/dL. For the same compound, the CRE (24 h) was 0.2 mg/dL, the Ca (24 h) was 10.5 mg/dL and the Cl (24 h) was 107 meq/L. For the same compound, the DBIL (24 h) was 0.002 mg/dL, the GLC (24 h) was 172 mg/dL and the IP (24 h) was 7.8 mg/dL. The K (24 h) was 4.3 meq/L, the LDH (24 h) was 182 IU/L and the Na (24 h) was 142.2 meq/L. The PL (24 h) was 182.4 mg/dL, the RALB (24 h) was 3.2 g/dL and the TBIL (24 h) was 0.004 mg/dL. For the same compound, the TC (24 h) was 77 mg/dL, the TG (24 h) was 108 mg/dL and the TP (24 h) was 5.5 g/dL. The gamma-GTP (24 h) was 1 IU/L.
